Test [1] relates to LNCaP/AR cells. As to the kind of experiment: Inhibition of proliferation of LNCaP/AR prostate cancer cells (CCK-8). The class given is cell-based.
In test [2] the target is T1, androgen receptor (AR) (Homo sapiens, UniProt P10275).
T1 sequence (P10275 1-920): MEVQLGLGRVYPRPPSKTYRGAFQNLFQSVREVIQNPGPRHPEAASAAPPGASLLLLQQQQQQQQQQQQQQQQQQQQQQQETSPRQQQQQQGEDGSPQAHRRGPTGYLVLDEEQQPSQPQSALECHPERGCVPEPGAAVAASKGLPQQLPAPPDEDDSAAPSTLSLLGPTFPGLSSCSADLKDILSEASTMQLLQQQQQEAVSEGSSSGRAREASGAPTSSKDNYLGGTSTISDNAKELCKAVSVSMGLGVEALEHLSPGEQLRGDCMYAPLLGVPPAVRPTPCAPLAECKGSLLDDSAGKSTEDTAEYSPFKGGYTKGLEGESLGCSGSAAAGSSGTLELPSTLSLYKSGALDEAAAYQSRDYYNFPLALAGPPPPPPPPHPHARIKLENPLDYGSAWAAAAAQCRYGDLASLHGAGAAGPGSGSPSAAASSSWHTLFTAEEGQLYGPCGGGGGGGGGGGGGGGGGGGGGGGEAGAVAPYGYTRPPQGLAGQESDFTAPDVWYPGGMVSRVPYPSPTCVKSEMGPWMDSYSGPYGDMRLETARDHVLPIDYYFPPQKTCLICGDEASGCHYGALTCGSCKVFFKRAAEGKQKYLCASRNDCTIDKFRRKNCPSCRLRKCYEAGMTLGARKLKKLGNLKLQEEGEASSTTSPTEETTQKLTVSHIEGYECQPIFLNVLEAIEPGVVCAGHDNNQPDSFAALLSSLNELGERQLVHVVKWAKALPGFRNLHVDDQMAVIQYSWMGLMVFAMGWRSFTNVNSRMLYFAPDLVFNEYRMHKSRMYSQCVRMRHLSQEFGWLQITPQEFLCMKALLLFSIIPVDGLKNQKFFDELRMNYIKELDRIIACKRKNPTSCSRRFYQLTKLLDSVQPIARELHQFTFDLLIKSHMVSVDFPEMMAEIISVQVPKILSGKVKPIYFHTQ
As to the kind of experiment: Degradation of androgen receptor (AR) protein in VCaP cells by ELISA. The note with it: for inhibition at 0.1 µM: read-out: % degradation. The class given is cell-based. In general terms: An ELISA detects its analyte on a solid surface through an enzyme-linked reagent.

The mark [3] stands for this setting: 144 h, proliferation of LNCap/AR cells, 6 days, CCK-8, read-out: IC50.
Where [4] appears, read: percentage of degraded AR at 100 nM, VCaP cells, 16 h, ELISA.
The mark [5] stands for this setting: proliferation of LNCap/AR cells, 6 days, CCK-8, read-out: IC50.

Read-outs that look alike come from different tables or passages of the source.

What is called IC50 is the concentration that inhibits the measured activity by half. For `CC(=O)O[C@@H]1C[C@@H](C(=O)N[C@@H](C)c2ccc(-c3scnc3C)cc2)N(C(=O)[C@@H](NC(=O)COCCCCCNc2ccc(NC(=O)N[C@H]3C(C)(C)[C@H](Oc4ccc(C#N)c(Cl)c4)C3(C)C)cc2)C(C)(C)C)C1` [Compound 1, (3R,5S)-1-((S)-2-(2-((5-((4-(3-((1R,3R)-3-(3-chloro-4-cyanophenoxy)-2,2,4,4-tetramethylcyclobutyl)ureido)phenyl)amino)pentyl)oxy)acetylamino)-3,3-dimethylbutyryl)-5-(((S)-1-(4-(4-methylthiazol-5-yl))phenyl)ethyl)carbamoyl) pyrrolidin-3-yl acetate], the IC50 in test [1] (setting [3]) was above 1000 nM. Moreover, the inhibition at 0.1 µM in test [2] (setting [4]) is below 25%.

For `Cc1ncsc1-c1ccc([C@H](C)NC(=O)C2C[C@@H](O)CN2C(=O)[C@@H](NC(=O)COCCN2CCN(c3ccc4c(c3)CN([C@H]3C(C)(C)[C@H](Oc5ccc(C#N)c(Cl)c5)C3(C)C)C4=O)CC2)C(C)(C)C)cc1` (stereo partly drawn) [Compound 3, (2S,4R)-1-((S)-2-(2-(2-(4-(2-((1R,3R)-3-(3-chloro-4-cyanophenoxy)-2,2,4,4-tetramethylcyclobutyl)-1-oxoisoindolin-5-yl)piperazin-1-yl)ethoxy)acetylamino)-3,3-dimethylbutyryl)-4-hydroxy-N-((S)-1-(4-(4-methylthiazol-5-yl)phenyl)ethyl)pyrrolidine-2-carboxamide], the IC50 in test [1] (setting [3]) was in the range of 100 to 500 nM. Further, the inhibition at 0.1 µM in test [2] (setting [4]) lay within 50 to 79%.

`CC(=O)O[C@@H]1C[C@H](C(=O)N[C@@H](C)c2ccc(-c3scnc3C)cc2)N(C(=O)[C@@H](NC(=O)COCCCCC#Cc2ccc3c(c2)C(=O)N(C2C(C)(C)C(Oc4ccc(C#N)c(Cl)c4)C2(C)C)C3)C(C)(C)C)C1` (stereo partly drawn) [Compound 4, (3R,5R)-1-((S)-2-(2-((6-(2-((1R,3R)-3-(3-chloro-4-cyanophenoxy)-2,2,4,4-tetramethylcyclobutyl)-3-oxoisoindolin-5-yl)hex-5-yn-1-yl)oxy)acetylamino)-3,3-dimethylbutyryl)-5-(((S)-1-(4-(4-methylthiazol-5-yl)phenyl)ethyl)carbamoyl) pyrrolidin-3-yl acetate]: the IC50 in test [1] (setting [5]) is below 100 nM. In addition, the “% degradation” value in test [2] is “C (key: A: >80%; B: 79%-50%; C: 49%-25%; D: <25%)”.

On to `CC(=O)O[C@@H]1C[C@@H](C(=O)N[C@@H](C)c2ccc(-c3scnc3C)cc2)N(C(=O)[C@@H](NC(=O)COCCCCCNc2ccc3c(c2)C(=O)N([C@H]2C(C)(C)[C@H](Oc4ccc(C#N)c(Cl)c4)C2(C)C)C3)C(C)(C)C)C1` [Compound 6, (3R,5S)-1-((S)-2-(2-((5-((2-((1R,3R)-3-(3-chloro-4-cyanophenoxy)-2,2,4,4-tetramethylcyclobutyl)-3-oxoisoindolin-5-yl)amino)pentyl)oxy)acetylamino)-3,3-dimethylbutyryl)-5-(((S)-1-(4-(4-methylthiazol-5)-yl)phenyl)ethyl)carbamoyl) pyrrolidin-3-yl acetate], for which the IC50 in test [1] (LNCaP/AR, 144 h) was below 100 nM. For the same compound, the inhibition at 0.1 µM in test [2] (setting [4]) lay within 50 to 79%.

Regarding `Cc1ncsc1-c1ccc([C@H](C)NC(=O)[C@@H]2C[C@@H](O)CN2C(=O)[C@@H](NC(=O)COCCCCCNc2ccc3c(c2)C(=O)N([C@H]2C(C)(C)[C@H](Oc4ccc(C#N)c(Cl)c4)C2(C)C)C3)C(C)(C)C)cc1` [Compound 7, (2S,4R)-1-((S)-2-(2-((5-((2-((1R,3R)-3-(3-chloro-4-cyanophenoxy)-2,2,4,4-tetramethylcyclobutyl)-3-oxoisoindolin-5-yl)amino)pentyl)oxy)acetylamino)-3,3-dimethylbutyryl)-4-hydroxy-N-((S)-1-(4-(4-methylthiazol-5-yl)phenyl)ethyl) pyrrolidine-2-carboxamide], in test [1] (setting [3]), the IC50 is below 100 nM. Further, the inhibition at 0.1 µM in test [2] (setting [4]) is 50 to 79%.

As for `Cc1ncsc1-c1ccc(C2(NC(=O)[C@H]3C[C@@H](O)CN3C(=O)[C@@H](NC(=O)COCCCCC#Cc3ccc(C(=O)N[C@H]4C(C)(C)[C@H](Oc5ccc(C#N)c(Br)c5)C4(C)C)cc3)C(C)(C)C)CC2)cc1` [Compound 9, (2R,4R)-1-((S)-2-(2-((6-(4-(((1R,3R)-3-(3-bromo-4-cyanophenoxy)-2,2,4,4-tetramethylcyclobutyl)carbamoyl)phenyl)hex-5-yn-1-yl)oxy)acetylamino)-3,3-dimethylbutyryl)-4-hydroxy-N-(1-(4-(4-methyl-5-yl)phenyl)cyclopropyl) pyrrolidine-2-carboxamide], the IC50 in test [1] (setting [3]) is below 100 nM. The inhibition at 0.1 µM in test [2] (setting [4]) is above 80%.

Take `CC(=O)O[C@@H]1C[C@@H](C(=O)N[C@@H](C)c2ccc(-c3scnc3C)cc2)N(C(=O)[C@@H](NC(=O)Cn2cc(C#Cc3ccc4c(c3)CN([C@H]3C(C)(C)[C@H](Oc5ccc(C#N)c(Cl)c5)C3(C)C)C4=O)cn2)C(C)(C)C)C1` [Compound 10, (3R,5S)-1-((S)-2-(2-(4-((2-((1r,3r)-3-(3-chloro-4-cyanophenoxy)-2,2,4,4-tetramethylcyclobutyl)-1-oxoisoindolin-5-ylethynyl)-1H-pyrazol-1-yl)acetylamino)-3,3-dimethylbutyryl)-5-((((S)-1-(4-(4-methylthiazol-5-yl)phenyl)ethylcarbamoyl)pyrrolidin-3-yl acetate]: in test [1] (setting [5]), the IC50 lay in the range of 100 to 500 nM. Further, the “% degradation” value in test [2] is given as “C (key: A: >80%; B: 79%-50%; C: 49%-25%; D: <25%)”.

Regarding `Cc1ncsc1-c1ccc([C@H](C)NC(=O)[C@@H]2C[C@@H](O)CN2C(=O)[C@@H](NC(=O)Cn2cc(C#Cc3ccc4c(c3)CN(C3C(C)(C)C(Oc5ccc(C#N)c(Cl)c5)C3(C)C)C4=O)cn2)C(C)(C)C)cc1` (stereo partly shown) [Compound 11], in test [1] (setting [5]), the IC50 is below 100 nM. Further, in test [2] (setting [4]), the “% degradation” value is recorded as “B (79%-50%)”.

As to `CC(=O)O[C@@H]1C[C@@H](C(=O)N[C@@H](C)c2ccc(-c3scnc3C)cc2)N(C(=O)[C@@H](NC(=O)COCCOCC#Cc2ccc3c(c2)CN([C@H]2C(C)(C)[C@H](Oc4ccc(C#N)c(Cl)c4)C2(C)C)C3=O)C(C)(C)C)C1` [Compound 12, (3R,5S)-1-((S)-2-(2-(2-((3-(2-((1r,3r)-3-(3-chloro-4-cyanophenoxy)-2,2,4,4-tetramethylcyclobutyl)-1-oxoisoindolin-5-yl)prop-2-yn-1-yl)oxy)propoxy)acetylamino)-3,3-dimethylbutyryl)-5-((((S)-1-acetic acid (4-(4-methylthiazol-5-yl)phenyl)ethyl)carbamoyl)pyrrolidin-3-yl acetate], the IC50 in test [1] (LNCaP/AR, 144 h) was below 100 nM. The inhibition at 0.1 µM in test [2] (setting [4]) was 50 to 79%.

As to `Cc1ncsc1-c1ccc([C@H](C)NC(=O)[C@@H]2C[C@@H](O)CN2C(=O)[C@@H](NC(=O)COCCOCC#Cc2ccc3c(c2)CN([C@H]2C(C)(C)[C@H](Oc4ccc(C#N)c(Cl)c4)C2(C)C)C3=O)C(C)(C)C)cc1` [Compound 13], the IC50 in test [1] (setting [5]) was below 100 nM. In addition, in test [2] (setting [4]), the “% degradation” value was “B (79%-50%)”.

As to `CC(=O)O[C@@H]1C[C@@H](C(=O)N[C@@H](C)c2ccc(-c3scnc3C)cc2)N(C(=O)[C@@H](NC(=O)COCC(C)OCC#Cc2ccc3c(c2)CN([C@H]2C(C)(C)[C@H](Oc4ccc(C#N)c(Cl)c4)C2(C)C)C3=O)C(C)(C)C)C1` (stereo partly drawn) [Compound 14, (3R,5S)-1-((2S)-2-(2-(2-((3-(2-((1r,3r)-3-(3-chloro-4-cyanophenoxy)-2,2,4,4-tetramethylcyclobutyl)-1-oxoisoindol-5-yl)prop-2-yn-1-yl)oxy)propoxy)acetylamino)-3,3-dimethylbutyryl)-5-((((S)-1-acetic acid (4-(4-methylthiazol-5-yl)phenyl)ethyl)carbamoyl)pyrrolidin-3-yl acetate], in test [1] (LNCaP/AR, 144 h), the IC50 is below 100 nM. The inhibition at 0.1 µM in test [2] (setting [4]) is 50 to 79%.

(Values after patent US20230091225A1, “Bifunctional chimeric heterocyclic compounds for targeted degradation of androgen receptors and use thereof” (HINOVA PHARMACEUTICALS INC., priority 2019, published 2023).)
